Experiment: xn = mol fraction of the nth substance listed

NCCO + CC(C)O
viscosity [mPa·s], 100 kPa
Conditions | x1 = 0.1 | x1 = 0.2 | x1 = 0.3 | x1 = 0.4 | x1 = 0.5 | x1 = 0.6 | x1 = 0.7 | x1 = 0.8 | x1 = 0.9
303.15 K | 2.11 | 2.53 | 3.08 | 3.86 | 4.9 | 6.12 | 7.7 | 9.55 | 11.9
313.15 K | 1.63 | 1.92 | 2.31 | 2.88 | 3.55 | 4.35 | 5.37 | 6.54 | 7.97
323.15 K | 1.27 | 1.49 | 1.78 | 2.21 | 2.65 | 3.22 | 3.89 | 4.69 | 5.64

C1CCCC1 + CCC(C)(C)O
viscosity [mPa·s], 101 kPa
Conditions | 298.15 K | 308.15 K
x1 = 0.0429 | 2.979 | 1.779
x1 = 0.067 | 2.668 | 1.62
x1 = 0.1245 | 2.256 | 1.413
x1 = 0.2079 | 1.793 | 1.151
x1 = 0.3116 | 1.297 | 0.9115
x1 = 0.3957 | 1.073 | 0.7831
x1 = 0.5173 | 0.8412 | 0.6798
x1 = 0.5982 | 0.7558 | 0.5719
x1 = 0.683 | 0.6454 | 0.5099
x1 = 0.8095 | 0.508 | 0.4267
x1 = 0.8844 | 0.4827 | 0.4072
x1 = 0.9127 | 0.4379 | 0.3726
x1 = 0.944 | 0.4169 | 0.3547

C1CCCC1 + CCC(C)=O
viscosity [mPa·s], 101.33 kPa
Conditions | 293.15 K | 298.15 K | 303.15 K
x1 = 0.0472 | 0.397 | 0.377 | 0.358
x1 = 0.0981 | 0.395 | 0.375 | 0.358
x1 = 0.1929 | 0.394 | 0.372 | 0.354
x1 = 0.2932 | 0.39 | 0.37 | 0.353
x1 = 0.3753 | 0.39 | 0.37 | 0.352
x1 = 0.4966 | 0.393 | 0.373 | 0.354
x1 = 0.6189 | 0.394 | 0.374 | 0.355
x1 = 0.6838 | 0.398 | 0.377 | 0.359
x1 = 0.8034 | 0.407 | 0.387 | 0.367
x1 = 0.9061 | 0.419 | 0.397 | 0.377
x1 = 0.9499 | 0.426 | 0.405 | 0.383

COC(=O)CCCCC(=O)OC + CCC(C)=O
100 kPa
Conditions | viscosity [mPa·s]
308.15 K, x1 = 0.2002 | 0.5865
318.15 K, x1 = 0.3002 | 0.6465
323.15 K, x1 = 0.4004 | 0.7425

C1CCCC1 + CCC(C)O
101 kPa
Conditions | viscosity [mPa·s]
298.15 K, x1 = 0.0967 | 2.238
298.15 K, x1 = 0.1932 | 1.702
298.15 K, x1 = 0.2298 | 1.578
298.15 K, x1 = 0.2524 | 1.454
298.15 K, x1 = 0.3078 | 1.253
298.15 K, x1 = 0.3627 | 1.081
298.15 K, x1 = 0.4215 | 0.936
298.15 K, x1 = 0.5078 | 0.7825
298.15 K, x1 = 0.5772 | 0.6742
298.15 K, x1 = 0.7238 | 0.5339
298.15 K, x1 = 0.8256 | 0.4728
298.15 K, x1 = 0.9298 | 0.4297
308.15 K, x1 = 0.0075 | 2.095
308.15 K, x1 = 0.047 | 1.917
308.15 K, x1 = 0.0598 | 1.7
308.15 K, x1 = 0.0917 | 1.552
308.15 K, x1 = 0.107 | 1.509
308.15 K, x1 = 0.2217 | 1.298
308.15 K, x1 = 0.2626 | 1.177
308.15 K, x1 = 0.3099 | 1.049
308.15 K, x1 = 0.3653 | 0.8998
308.15 K, x1 = 0.4219 | 0.8068
308.15 K, x1 = 0.496 | 0.6842
308.15 K, x1 = 0.5716 | 0.5943
308.15 K, x1 = 0.6554 | 0.5084
308.15 K, x1 = 0.7457 | 0.4481
308.15 K, x1 = 0.845 | 0.4249
308.15 K, x1 = 0.9255 | 0.3819
308.15 K, x1 = 0.9753 | 0.3779

CN1CCCC1=O + CCC(C)O
viscosity [mPa·s], 101.3 kPa
Conditions | x2 = 0.1049 | x2 = 0.4019 | x2 = 0.5003
293.15 K | 1.815 | – | –
313.15 K | – | 1.285 | 1.285

CCCCC(CC)C(=O)OCC(COC(=O)C(CC)CCCC)(COC(=O)C(CC)CCCC)COC(=O)C(CC)CCCC (stereo not drawn) + CCCCC(=O)OCC(COC(=O)CCCC)(COC(=O)CCCC)COC(=O)CCCC
Conditions | viscosity [mPa·s]
313.15 K, 100 kPa, x1 = 0.6911 | 32.3

OCc1ccccc1 + CCCCCC
viscosity [mPa·s], 101.3 kPa
Conditions | 303.15 K | 313.15 K | 323.15 K
x1 = 0.0101 | 0.303 | 0.284 | 0.254
x2 = 0.0312 | 4.044 | 3.013 | 2.36
x2 = 0.0645 | 3.832 | 2.754 | 2.173
x2 = 0.0976 | 3.35 | 2.394 | 1.974
x2 = 0.1313 | 3.119 | 2.256 | 1.79
x2 = 0.1653 | 2.649 | 2.004 | 1.616
x2 = 0.2056 | 2.328 | 1.827 | 1.455
x2 = 0.255 | 1.972 | 1.615 | 1.327
x2 = 0.8792 | 0.364 | 0.335 | 0.307
x2 = 0.955 | 0.326 | 0.302 | 0.268
x2 = 0.9699 | 0.32 | 0.3 | 0.262
x2 = 0.9799 | 0.312 | 0.292 | 0.258

CCCCC(CC)C(=O)OCC(COC(=O)C(CC)CCCC)(COC(=O)C(CC)CCCC)COC(=O)C(CC)CCCC (stereo not drawn) + CCCCCCC(=O)OCC(COC(=O)CCCCCC)(COC(=O)CCCCCC)COC(=O)CCCCCC
100 kPa, x1 = 0.667
Conditions | viscosity [mPa·s]
303.15 K | 51.7
313.15 K | 32.6
323.15 K | 20.7

CC(C)(C)C1CCCCC1 + CCCCCCCCCCCC
viscosity [mPa·s], 102 kPa
Conditions | x1 = 0.1003 | x1 = 0.2004 | x1 = 0.3011 | x1 = 0.4005 | x1 = 0.5001 | x1 = 0.601 | x1 = 0.7001 | x1 = 0.8003 | x1 = 0.8991
293.15 K | 1.5 | 1.5 | 1.5 | 1.51 | 1.53 | 1.54 | 1.57 | 1.6 | 1.64
303.15 K | 1.26 | 1.26 | 1.27 | 1.27 | 1.28 | 1.3 | 1.32 | 1.34 | 1.38
313.15 K | 1.07 | 1.07 | 1.08 | 1.09 | 1.09 | 1.11 | 1.13 | 1.15 | 1.17
323.15 K | 0.92 | 0.925 | 0.933 | 0.939 | 0.946 | 0.958 | 0.975 | 0.992 | 1.01

CC(C)(C)C1CCCCC1 + CCCCCCCCCCCCCCCC
viscosity [mPa·s], 102 kPa
Conditions | x1 = 0.1004 | x1 = 0.2003 | x1 = 0.3003 | x1 = 0.4016 | x1 = 0.5003 | x1 = 0.6001 | x1 = 0.7002 | x1 = 0.8001 | x1 = 0.8999
293.15 K | 3.31 | 3.13 | 2.95 | 2.77 | 2.59 | 2.41 | 2.23 | 2.05 | 1.87
303.15 K | 2.63 | 2.51 | 2.37 | 2.24 | 2.1 | 1.97 | 1.83 | 1.7 | 1.56
313.15 K | 2.15 | 2.05 | 1.95 | 1.85 | 1.75 | 1.64 | 1.54 | 1.43 | 1.32
323.15 K | 1.78 | 1.71 | 1.63 | 1.56 | 1.48 | 1.39 | 1.31 | 1.22 | 1.14

C1CCCC1 + CCCCCCCO
101.3 kPa
Conditions | viscosity [mPa·s]
298.15 K, x1 = 0.0352 | 5.482
298.15 K, x1 = 0.0593 | 5.221
298.15 K, x1 = 0.0988 | 4.844
298.15 K, x1 = 0.1481 | 4.446
298.15 K, x1 = 0.2145 | 3.924
298.15 K, x1 = 0.2684 | 3.481
298.15 K, x1 = 0.3065 | 3.175
298.15 K, x1 = 0.3655 | 2.729
298.15 K, x1 = 0.4052 | 2.452
298.15 K, x1 = 0.4333 | 2.255
298.15 K, x1 = 0.4668 | 2.039
298.15 K, x1 = 0.4932 | 1.889
298.15 K, x1 = 0.5131 | 1.773
298.15 K, x1 = 0.5247 | 1.71
298.15 K, x1 = 0.5389 | 1.629
298.15 K, x1 = 0.5545 | 1.546
298.15 K, x1 = 0.5728 | 1.45
298.15 K, x1 = 0.5972 | 1.348
298.15 K, x1 = 0.612 | 1.272
298.15 K, x1 = 0.6459 | 1.141
298.15 K, x1 = 0.6823 | 1.009
298.15 K, x1 = 0.7149 | 0.909
298.15 K, x1 = 0.7429 | 0.819
298.15 K, x1 = 0.7801 | 0.734
298.15 K, x1 = 0.8099 | 0.672
298.15 K, x1 = 0.8367 | 0.622
298.15 K, x1 = 0.876 | 0.559
298.15 K, x1 = 0.9139 | 0.507
298.15 K, x1 = 0.9562 | 0.455
298.15 K, x2 = 0.0123 | 0.422
308.15 K, x1 = 0.0706 | 3.806
308.15 K, x1 = 0.107 | 3.567
308.15 K, x1 = 0.2112 | 2.906
308.15 K, x1 = 0.2927 | 2.434
308.15 K, x1 = 0.3502 | 2.124
308.15 K, x1 = 0.3903 | 1.904
308.15 K, x1 = 0.4235 | 1.762
308.15 K, x1 = 0.4744 | 1.536
308.15 K, x1 = 0.5101 | 1.397
308.15 K, x1 = 0.5124 | 1.388
308.15 K, x1 = 0.5273 | 1.333
308.15 K, x1 = 0.5473 | 1.254
308.15 K, x1 = 0.5733 | 1.164
308.15 K, x1 = 0.5957 | 1.094
308.15 K, x1 = 0.6126 | 1.033
308.15 K, x1 = 0.6337 | 0.973
308.15 K, x1 = 0.6691 | 0.873
308.15 K, x1 = 0.6936 | 0.817
308.15 K, x1 = 0.7266 | 0.741
308.15 K, x1 = 0.7759 | 0.645
308.15 K, x1 = 0.8235 | 0.567
308.15 K, x1 = 0.8612 | 0.513
308.15 K, x1 = 0.9001 | 0.465
308.15 K, x1 = 0.9538 | 0.407
318.15 K, x1 = 0.0663 | 3.159
318.15 K, x1 = 0.1607 | 2.659
318.15 K, x1 = 0.2747 | 2.102
318.15 K, x1 = 0.3487 | 1.774
318.15 K, x1 = 0.4227 | 1.477
318.15 K, x1 = 0.4685 | 1.326
318.15 K, x1 = 0.504 | 1.204
318.15 K, x1 = 0.5407 | 1.097
318.15 K, x1 = 0.5754 | 1.006
318.15 K, x1 = 0.6027 | 0.936
318.15 K, x1 = 0.6281 | 0.877
318.15 K, x1 = 0.6529 | 0.814
318.15 K, x1 = 0.6898 | 0.743
318.15 K, x1 = 0.7214 | 0.681
318.15 K, x1 = 0.7581 | 0.617
318.15 K, x1 = 0.8025 | 0.549
318.15 K, x1 = 0.8554 | 0.475
318.15 K, x1 = 0.9198 | 0.402
318.15 K, x1 = 0.9672 | 0.359

NCCO + CCCCCCO
viscosity [mPa·s], 101.3 kPa
Conditions | x1 = 0.1 | x1 = 0.2 | x1 = 0.3 | x1 = 0.4 | x1 = 0.5 | x1 = 0.6 | x1 = 0.7 | x1 = 0.8 | x1 = 0.9
303.15 K | 4.07 | 4.48 | 5.04 | 5.68 | 6.54 | 7.62 | 8.84 | 10.4 | 12.3
313.15 K | 3.08 | 3.34 | 3.72 | 4.15 | 4.7 | 5.41 | 6.17 | 7.18 | 8.31
323.15 K | 2.37 | 2.57 | 2.84 | 3.13 | 3.51 | 3.98 | 4.49 | 5.16 | 5.88

— the CheMixHub viscosity set
